Here are results for 19 molecules from patent publication US5948791A, “Quinoline derivatives for treating malaria” (Hoffmann-La Roche Inc., priority 1995, dated 1999).

Values after ≈ are worked out from the molar mass of the structure shown. Counter-ions that a name gives are not always drawn. Like-named read-outs stand apart in the source and are kept apart here.

The subject of experiment [1] is Plasmodium falciparum strain NF54. Nature of the experiment: Growth inhibition of Plasmodium falciparum NF54 (chloroquine-sensitive) in vitro, [G-3H]-hypoxanthin incorporation. The note with it: chloroquine-sensitive strain NF54, 72 h, read-out: IC50 for P. falciparum NF54. The experiment is classed as cell-based. An excerpt: (§1) The ratio of the growth inhibition of a strain which is especially resistant to chloroquine and of a strain which is sensitive to chloroquine gives as the "resistance index" a measurement for the absence of a cross-resistance with chloroquine. Since, for all novel compounds the resistance index lies between 0.7 and 2.5, they inhibit the growth of sensitive as well as resistant strains of the malaria pathogen equally effectively. They are accordingly also suitable for the prophylaxis of a malaria disease and also for the treatment of a malaria disease even when chloroquine is ineffective. The good activity against malaria pathogens is also shown in animal experiments. The effective doses measured after oral and subcutaneous administration to mice infected with malaria pathogens are shown in Table 2 hereinafter.
(§2) Test method for the determination of the activity against Plasmodium falciparum in vitro
(§3) The preparations are tested on intraerythrocytary stages of Plasmodium falciparum from asynchronous cultures according to the method of Desjardin et al. (Desjardins, R. E. et al: Quantitative assessment of antimalarial activity in vitro by a semiautomated microdilution technique. Antimicrob. Agents Chemother. 16, 710-718, (1979)).
(§4) The culture medium consists of RPMI 1640 with the addition of 25 mM HEPES, 25 mM NaHCO3, 100 μg/ml neomycin and […] (A^+). Human-A^+ erythrocytes are used as the Plasmodium falciparum host cells. The parasites are maintained at 37° C. in an atmosphere of 3% O2, 4% CO2, 93% N2 and 95% relative humidity.
(§5) In order to determine the activity, the preparations are dissolved in DMSO, pre-diluted in the culture medium to a suitable starting concentration and subsequently titrated-out on to microtitre plates in the 2nd stage over 6-7 steps. After the addition of the parasite culture (0.7% parasitemia in 2.5% erythrocyte suspension) the test plates are incubated under the conditions given above for 72 h. The parasite growth in the different preparation concentrations is determined using [G-^3 H]-hypoxanthin incorporation compared to untreated control cultures on the same test plates. The 50% growth inhibition (IC50) is calculated according to logit regression analysis from the resulting dosage-activity curve.
(§6) The preparations are tested on at least one chloroquine-resistant and one chloroquine-sensitive Plasmodium falciparum strain. Additional sensitive and resistant strains are included for further characterization.

The next experiment deals with Plasmodium falciparum K1. In words: Growth inhibition of Plasmodium falciparum K1 (chloroquine-resistant) in vitro, [G-3H]-hypoxanthin incorporation. It counts as cell-based, Plasmodium falciparum (strain K1). Conditions: for IC50: Plasmodium falciparum, K1, 72 h, read-out: IC50 for P. falciparum K1; for Resistance index: ratio of the IC50 for K1 and the IC50 for NF54.
Excerpt: as §1, §2, §3, §4, §5, §6

The next experiment deals with Plasmodium berghei. Nature of the experiment: animal or person. It counts as in vivo, Plasmodium berghei (strain ANKA) in mice. Conditions: Plasmodium berghei, mice, blood smears 48 h after treatment. How it is done:
Test method for the determination of the activity against Plasmodium berghei in vivo
The preparations are tested on mice infected with malaria pathogens (Plasmodium berghei). Male albino mice (IBM:MORO(SPF), FUELLINSDORF) weighing about 25 g are used as the test animals. They are kept in climatized rooms at 21-22° C. in groups of 5 animals per cage. They receive ad libitum a diet feed with a low PABA content (NAFAG FUTTER " No. 9009 PAB-45, PABA content 45 mg/kg) and drinking water. On the first day of the test (D0) the test animals are infected with Plasmodium berghei (strain ANKA). For this there is used heparinized blood of a donor mouse with about 30% parasitemia, which is diluted with physiological saline such that it contains 10^8 parasitized erythrocytes per ml. 0.2 ml of this suspension is injected intravenously (i.v.) into the mice to be treated and into the control mice.
The substances to be tested are dissolved or suspended in distilled water or in a mixture of 7% Tween 80, 3% alcohol (96%) and water. Usually, 0.25 ml of this solution or suspension is administered once subcutaneously and perorally to groups of 5 test animals. Treatment is effected 24 hours after the infection. 10 control animals are treated in the same manner with solvent or suspension medium per test.
All substances are tested in a first test in a single dosage of 10 mg/kg. Only those substances which in this test (10 mg/kg) have shown a parasitaemia reduction of 90% are used for the titration. Suitable dilutions of the test substance can be used to obtain an accurate titration of the activity.
48 hours after the treatment (D+3) blood smears are prepared from all animals using blood from tail veins and are stained with giemsa. […] The difference in the average values of the infection rates of control group (100%) and treated groups is calculated and expressed as a percentage reduction (GI%). The ED50 or ED90 is determined mathematically by means of the JMP programme (nonlinear fit). The ED50 (ED90) in mg/kg is that dose which after single administration reduces the average erythrocyte infection rate by 50% (90%) in comparison to the control group.

`CCN(CC)Cc1cc(Nc2ccnc3cc(Cl)ccc23)ccc1O` [Amodiaquine, reference compound]: the values for the IC50 (in experiment [1]; in the experiment with Plasmodium falciparum K1) were 0.0025 µg/mL (≈ 7.03 nM) and 0.0035 µg/mL (≈ 9.84 nM), respectively.
As for `C[C@H](CNc1ccnc2cc(Cl)ccc12)NCc1ccc(N(C)C)cc1.Cl.Cl.Cl` [Example 1, (2R)-N1-(7-Chloro-quinolin-4-yl)-N2-(4-dimethylamino-benzyl)-propane-1,2-diamine trihydrochloride], the IC50 in experiment [1] turned out to be 0.0126 µg/mL; with Plasmodium falciparum K1 it was 0.0175 µg/mL. Besides, the Resistance index in the experiment on Plasmodium falciparum K1 is reported as 1.4.
With `C[C@@H](CNCc1ccc(N(C)C)cc1)Nc1ccnc2cc(Cl)ccc12.Cl.Cl.Cl` [Example 2, (2S)-N2-(7-Chloro-quinolin-4-yl)-N1-(4-dimethylamino-benzyl)-propane-1,2-diamine trihydrochloride], in experiment [1], the IC50 is 0.0071 µg/mL. Also, in the experiment with Plasmodium falciparum K1, the IC50 stood at 0.0148 µg/mL and the Resistance index amounted to 2.1.
Turning to `CC(C)(CNc1ccnc2cc(Cl)ccc12)NCc1cccc(Cl)c1Cl.Cl.Cl` [Example 26, N1-(7-Chloro-quinolin-4-yl)-N2-(2,3-dichloro-benzyl)-2-methyl-propane-1,2-diamine dihydrochloride], the IC50 in experiment [1] amounted to 0.0263 µg/mL. In addition, in the experiment with Plasmodium falciparum K1, the IC50 came out at 0.0373 µg/mL and the Resistance index is 1.4.
Taken in the same sequence, the figures for `CC(C)(CNc1ccnc2cc(Cl)ccc12)NCc1cccc(O)c1.Cl.Cl` [Example 32, N1-(7-Chloro-quinolin-4-yl)-N2-(3-hydroxy-benzyl)-2-methyl-propane-1,2-diamine dihydrochloride] were 0.0076 µg/mL, 0.0147 µg/mL and 1.9.
On to `COc1ccccc1CNC(C)(C)CNc1ccnc2cc(Cl)ccc12.Cl.Cl` [Example 34, N1-(7-Chloro-quinolin-4-yl)-N2-(2-methoxy-benzyl)-2-methyl-propane-1,2-diamine dihydrochloride], for which the IC50 in experiment [1] worked out at 0.0072 µg/mL. Further, in the experiment with Plasmodium falciparum K1, the IC50 turned out to be 0.015 µg/mL and the Resistance index stood at 2.1.
Consider `COc1ccc(CNC(C)(C)CNc2ccnc3cc(Cl)ccc23)cc1.Cl.Cl` [Example 35, N1-(7-Chloro-quinolin-4-yl)-N2-(4-methoxy-benzyl)-2-methyl-propane-1,2-diamine dihydrochloride], for which the IC50 in experiment [1] worked out at 0.0064 µg/mL; in the experiment with Plasmodium falciparum K1 it was 0.0133 µg/mL. In the experiment on Plasmodium falciparum K1, the Resistance index was found to be 2.1.
As to `COc1cccc(CNC(C)(C)CNc2ccnc3cc(Cl)ccc23)c1OC.Cl.Cl` [Example 36, N1-(7-Chloro-quinolin-4-yl)-N2-(2,3-dimethoxy-benzyl)-2-methyl-propane-1,2-diamine dihydrochloride], the IC50 in experiment [1] came to 0.0162 µg/mL. In the experiment on Plasmodium falciparum K1, the IC50 amounted to 0.0207 µg/mL and the Resistance index came out at 1.3.
`COc1ccc(CNC(C)(C)CNc2ccnc3cc(Cl)ccc23)c(OC)c1.Cl.Cl` [Example 37, N1-(7-Chloro-quinolin-4-yl)-N2-(2,4-dimethoxy-benzyl)-2-methyl-propane-1,2-diamine dihydrochloride]: the IC50 (in experiment [1]; in the experiment with Plasmodium falciparum K1) was 0.011 µg/mL in each case. Moreover, the Resistance index in the experiment on Plasmodium falciparum K1 turned out to be 1.0.
With `COc1ccc(OC)c(CNC(C)(C)CNc2ccnc3cc(Cl)ccc23)c1.Cl.Cl` [Example 38, N1-(7-Chloro-quinolin-4-yl)-N2-(2,5-dimethoxy-benzyl)-2-methyl-propane-1,2-diamine dihydrochloride], the values for the IC50 (in experiment [1]; in the experiment with Plasmodium falciparum K1) were 0.0101 µg/mL and 0.0151 µg/mL, respectively. Also, in the experiment on Plasmodium falciparum K1, the Resistance index is reported as 1.5.
Take `COc1ccc(CNC(C)(C)CNc2ccnc3cc(Cl)ccc23)cc1OC.Cl.Cl` [Example 39, N1-(7-Chloro-quinolin-4-yl)-N2-(3,4-dimethoxy-benzyl)-2-methyl-propane-1,2-diamine dihydrochloride]: the IC50 in experiment [1] was 0.0078 µg/mL. Moreover, in the experiment on Plasmodium falciparum K1, the IC50 worked out at 0.0103 µg/mL and the Resistance index stood at 1.3.
Regarding `COc1cc(CNC(C)(C)CNc2ccnc3cc(Cl)ccc23)cc(OC)c1OC.Cl.Cl` [Example 41, N1-(7-Chloro-quinolin-4-yl)-N2-(3,4,5-trimethoxy-benzyl)-2-methyl-propane-1,2-diamine dihydrochloride], the IC50 in experiment [1] was determined as 0.0135 µg/mL. In addition, in the experiment with Plasmodium falciparum K1, the IC50 was determined as 0.0187 µg/mL and the Resistance index is recorded as 1.4.
Regarding `CC(C)(CNc1ccnc2cc(Cl)ccc12)NCc1ccc2c(c1)OCO2.Cl.Cl` [Example 42, N1-(7-Chloro-quinolin-4-yl)-N2-benzo[1,3]dioxol-5-ylmethyl-2-methyl-propane-1,2-diamine dihydrochloride], the IC50 in experiment [1] stood at 0.0087 µg/mL; in the experiment with Plasmodium falciparum K1 it was 0.0126 µg/mL. The Resistance index in the experiment with Plasmodium falciparum K1 is listed as 1.4.
Regarding `CC(C)(CNc1ccnc2cc(Cl)ccc12)NCc1cccc2ccccc12.Cl.Cl` [Example 52, N1-(7-Chloro-quinolin-4-yl)-N2-(naphthalen-1-yl-methyl)-2-methyl-propane-1,2-diamine dihydrochloride], the 50% inhibitory concentration (IC50) in experiment [1] amounted to 0.0346 µg/mL. Besides, in the experiment on Plasmodium falciparum K1, the IC50 was determined as 0.0556 µg/mL and the Resistance index is listed as 1.6.
With `CC(C)(CNc1ccnc2cc(Cl)ccc12)NCc1ccc2ccccc2c1.Cl.Cl` [Example 53, N1-(7-Chloro-quinolin-4-yl)-N2-(naphthalen-2-yl-methyl)-2-methyl-propane-1,2-diamine dihydrochloride], the IC50 in experiment [1] came to 0.0159 µg/mL. In the experiment with Plasmodium falciparum K1, the IC50 was 0.0149 µg/mL and the Resistance index was found to be 0.9.
For the molecule `CC(C)(CNc1ccnc2cc(Cl)ccc12)NCc1ccco1.Cl.Cl` [Example 54, N1-(7-Chloro-quinolin-4-yl)-N2-(furan-2-yl-methyl)-2-methyl-propane-1,2-diamine dihydrochloride], in experiment [1], the IC50 worked out at 0.0193 µg/mL. Besides, in the experiment with Plasmodium falciparum K1, the IC50 was 0.029 µg/mL and the Resistance index was determined as 1.5.
Regarding `CC(C)(CNc1ccnc2cc(Cl)ccc12)NCc1ccoc1.Cl.Cl` [Example 55, N1-(7-Chloro-quinolin-4-yl)-N2-(furan-3-yl-methyl)-2-methyl-propane-1,2-diamine dihydrochloride], the IC50 in experiment [1] was found to be 0.0078 µg/mL. In addition, in the experiment on Plasmodium falciparum K1, the IC50 stood at 0.0145 µg/mL and the Resistance index was 1.9.
Turning to `CC(C)(CNc1ccnc2cc(Cl)ccc12)NCc1ccc(C(F)(F)F)cc1C(F)(F)F.Cl.Cl` [Example 59, N1-(7-Chloro-quinolin-4-yl)-N2-(2,4-bis-trifluoromethyl-benzyl)-2-methyl-propane-1,2-diamine dihydrochloride], the IC50 in experiment [1] amounted to 0.166 µg/mL. In the experiment with Plasmodium falciparum K1, the IC50 was found to be 0.186 µg/mL and the Resistance index stood at 1.1.
In the case of `Oc1ccccc1CN[C@H]1CC[C@@H](Nc2ccnc3cc(Cl)ccc23)CC1` [Example 78, cis-N1-(7-Chloro-quinolin-4-yl)-N4-(2-hydroxy-benzyl)-cyclohexane-1,4-diamine dihydrochloride], the inhibition in vivo at 10 mg/kg in the experiment with Plasmodium berghei (po, single peroral dose of 10 mg/kg, read-out: Growth inhibition in % after po administration (GI%, percentage reduction of the parasitemia)) worked out at 99.9%; in the experiment on Plasmodium berghei (sc, single subcutaneous dose of 10 mg/kg, read-out: Growth inhibition in % after sc administration (GI%, percentage reduction of the parasitemia)) it was 100%.

As usually defined, the IC50 is the concentration that gives 50% inhibition.
